Laboratory results reported in ChEMBL document CHEMBL6096661, “Synthesis, biological evaluation and mechanism study of a novel indole-pyridine chalcone derivative as antiproliferative agent against tumor cells through dual targeting tubulin and HK2” (Eur J Med Chem, 2025).
The source made the active and inactive calls. The calls are words filed in the database; no cut-off is given here.

Key:
MDA-MB-231 = assay: Antiproliferative activity against human MDA-MB-231 cells assessed as reduction in cell proliferation incubated for 48 hrs by CCK-8 assay; type: functional, cell-based; details: MDA-MB-231, 48 h
HCT-116 = assay: Antiproliferative activity against human HCT-116 cells assessed as inhibition of cell growth incubated for 48 hrs by CCK-8 assay; type: functional, cell-based; details: HCT-116, 48 h
SW480 = assay: Antiproliferative activity against human SW480 cells assessed as inhibition of cell growth incubated for 48 hrs by CCK-8 assay; type: functional, cell-based; details: SW480, 48 h
LoVo = assay: Antiproliferative activity against human LoVo cells assessed as inhibition of cell growth incubated for 48 hrs by CCK-8 assay; type: functional, cell-based
HT-1080 = assay: Antiproliferative activity against human HT-1080 cells assessed as inhibition of cell growth incubated for 48 hrs by CCK-8 assay; type: functional, cell-based; details: HT-1080, 48 h
[1] = biological target: T1, Hexokinase-2 (Homo sapiens) (UniProt P52789); assay: Inhibition of human HK2 transfected in Escherichia coli BL21 (DE) incubated for 10 mins
T1 sequence (whole entry): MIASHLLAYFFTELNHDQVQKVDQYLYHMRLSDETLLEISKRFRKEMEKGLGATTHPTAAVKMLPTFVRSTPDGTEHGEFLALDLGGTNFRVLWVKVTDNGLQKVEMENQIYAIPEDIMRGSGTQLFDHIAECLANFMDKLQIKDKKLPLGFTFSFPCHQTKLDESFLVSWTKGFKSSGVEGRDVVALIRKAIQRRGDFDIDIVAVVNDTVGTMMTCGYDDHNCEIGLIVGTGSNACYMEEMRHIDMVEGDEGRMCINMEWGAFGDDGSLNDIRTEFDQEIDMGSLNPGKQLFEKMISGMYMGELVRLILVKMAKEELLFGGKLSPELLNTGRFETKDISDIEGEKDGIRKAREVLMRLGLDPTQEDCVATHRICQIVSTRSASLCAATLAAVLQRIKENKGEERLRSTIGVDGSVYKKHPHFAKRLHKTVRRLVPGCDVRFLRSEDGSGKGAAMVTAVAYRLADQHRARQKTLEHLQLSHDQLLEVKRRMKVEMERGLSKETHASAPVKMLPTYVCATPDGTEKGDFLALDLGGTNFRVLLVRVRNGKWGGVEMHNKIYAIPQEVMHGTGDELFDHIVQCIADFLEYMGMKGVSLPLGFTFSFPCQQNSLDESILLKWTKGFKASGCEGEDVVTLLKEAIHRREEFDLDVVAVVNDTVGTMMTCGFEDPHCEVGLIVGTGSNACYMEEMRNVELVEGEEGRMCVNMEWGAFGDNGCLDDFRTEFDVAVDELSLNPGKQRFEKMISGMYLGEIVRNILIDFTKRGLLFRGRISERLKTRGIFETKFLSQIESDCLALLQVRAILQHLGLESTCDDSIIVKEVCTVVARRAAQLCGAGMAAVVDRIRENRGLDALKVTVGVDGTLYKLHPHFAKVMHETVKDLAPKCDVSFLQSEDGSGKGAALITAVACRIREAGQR

Row | SMILES | IC50 (MDA-MB-231) [µM] | further results
1 | C/C(=C\c1c[nH]c2ccc(N3CCOCC3)cc12)C(=O)c1cccnc1 | 56.6 | –
2 | O=C(/C=C/c1cn(S(=O)(=O)c2ccc([N+](=O)[O-])cc2)c2cc(N3CCOCC3)ccc12)c1cccnc1 | 0.857 | IC50 (HCT-116): 1.7 µM; IC50 (SW480): 0.718 µM; IC50 (LoVo): 0.792 µM; IC50 (HT-1080): 0.773 µM
3 | O=C(/C=C/c1cn(S(=O)(=O)c2ccc([N+](=O)[O-])cc2)c2ccc(N3CCSCC3)cc12)c1cccnc1 | 3.94 | –
4 | O=C(/C=C/c1cn(S(=O)(=O)c2ccc(Br)cc2)c2ccc(N3CCOCC3)cc12)c1ccncc1 | 9.53 | –
5 | O=C(/C=C/c1cn(S(=O)(=O)c2cccc3ccccc23)c2ccc(N3CCOCC3)cc12)c1ccncc1 | 45.4 | –
6 | O=C(/C=C/c1cn(S(=O)(=O)c2ccc([N+](=O)[O-])cc2)c2ccc(N3CCOCC3)cc12)c1ccncc1 | 1.53 | IC50 (HCT-116): 1.85 µM; IC50 (SW480): 1.08 µM; IC50 (LoVo): 0.392 µM; IC50 (HT-1080): 0.681 µM
7 | O=C(/C=C/c1cn(S(=O)(=O)c2ccc3ccccc3c2)c2ccc(N3CCOCC3)cc12)c1ccncc1 | 12.8 | –
8 | Cc1ccc(S(=O)(=O)n2cc(/C=C/C(=O)c3ccncc3)c3cc(N4CCOCC4)ccc32)cc1 | 3.51 | –
9 | C/C(=C\c1cn(S(=O)(=O)c2ccc([N+](=O)[O-])cc2)c2ccc(N3CCOCC3)cc12)C(=O)c1cccnc1 | 43.1 | –
10 | O=C(/C=C/c1cn(S(=O)(=O)c2ccc([N+](=O)[O-])cc2)c2ccc(N3CCOCC3)cc12)c1ccc(N2CCCCC2)nc1 | 151 | –
11 | Cc1ccc(C(=O)/C=C/c2cn(S(=O)(=O)c3ccc([N+](=O)[O-])cc3)c3ccc(N4CCOCC4)cc23)cn1 | 6.25 | –
12 | CC(C)(C)c1ccc(S(=O)(=O)n2cc(/C=C/C(=O)c3ccncc3)c3cc(N4CCOCC4)ccc32)cc1 | 7.98 | –
13 | O=C(/C=C/c1cn(S(=O)(=O)Cc2ccccc2)c2ccc(N3CCOCC3)cc12)c1ccncc1 | 2.5 | –
14 | O=C(/C=C/c1cn(S(=O)(=O)c2cccnc2)c2ccc(N3CCOCC3)cc12)c1ccncc1 | 2.89 | –
15 | O=[N+]([O-])c1ccc(S(=O)(=O)n2cc(C3CC(c4ccncc4)=NO3)c3cc(N4CCOCC4)ccc32)cc1 (centres undefined) | 150 | –
16 | COc1ccc(C(=O)/C=C/c2cn(S(=O)(=O)c3ccc([N+](=O)[O-])cc3)c3ccc(N4CCOCC4)cc23)cn1 | 73.9 | –
17 | O=C(/C=C/c1cn(S(=O)(=O)c2ccc(C(F)(F)F)cc2)c2ccc(N3CCOCC3)cc12)c1ccncc1 | 4.81 | –
18 | O=C(/C=C/c1cn(S(=O)(=O)c2ccc([N+](=O)[O-])cc2)c2ccc(N3CCOCC3)cc12)c1ncccn1 | 1.81 | IC50 (HCT-116): 3.46 µM; IC50 (SW480): 2.03 µM; IC50 (LoVo): 1.3 µM; IC50 (HT-1080): 1.19 µM
19 | O=C(/C=C/c1cn(S(=O)(=O)c2ccc(Cl)cc2)c2ccc(N3CCOCC3)cc12)c1ccncc1 | 7.19 | –
20 | COc1cc(C(=O)/C=C/c2cn(CO)c3ccc(N4CCOCC4)cc23)cc(OC)c1OC | 12.5 | –
21 | O=Cc1c[nH]c2ccc(N3CCOCC3)cc12 | 88.6 | –
22 | O=C(/C=C/c1cn(S(=O)(=O)c2ccc([N+](=O)[O-])cc2)c2ccc(N3CCOCC3)cc12)c1ccco1 | 27.1 | –
23 | CC(C)(C)OC(=O)n1cc(/C=C/C(=O)c2ccncc2)c2cc(N3CCOCC3)ccc21 | 7.52 | –
24 | O=C(/C=C/c1cn(S(=O)(=O)c2ccc(F)cc2)c2ccc(N3CCOCC3)cc12)c1ccncc1 | 5.48 | –
25 | O=C(/C=C/c1c[nH]c2ccc(N3CCOCC3)cc12)c1ccncc1 | 39.3 | –
26 | COc1cc2c(c(OC)c1OC)-c1ccc(OC)c(=O)cc1[C@@H](NC(C)=O)CC2 [COLCHICINE] | 2.2 | inhibition [1]: inactive
27 | O=C(/C=C/c1cn(Cc2ccccc2)c2ccc(N3CCOCC3)cc12)c1ccncc1 | 148 | –
28 | c1cncc(C2=NOC(c3c[nH]c4ccc(N5CCOCC5)cc34)C2)c1 (centres undefined) | 90.3 | –

Row | SMILES | IC50 (MDA-MB-231) [µM] | further results
29 | O=C(/C=C/c1cn(S(=O)(=O)c2ccc([N+](=O)[O-])cc2)c2ccc(N3CCCCC3)cc12)c1cccnc1 | 0.816 | IC50 (HCT-116): 3.19 µM; IC50 (SW480): 0.999 µM; IC50 (LoVo): 0.765 µM; IC50 (HT-1080): 0.751 µM
30 | c1cc(C2=NOC(c3c[nH]c4ccc(N5CCOCC5)cc34)C2)ccn1 (centres undefined) | 200 | –
31 | Cc1ccc(S(=O)(=O)n2cc(C=O)c3cc(N4CCOCC4)ccc32)cc1 | 15.9 | –
32 | O=C(/C=C/c1cn(C(=O)c2ccccc2)c2ccc(N3CCOCC3)cc12)c1ccncc1 | 7.7 | –
33 | COc1cc(C(=O)/C=C/c2cn(C(=O)c3cc(OC)c(OC)c(OC)c3)c3ccc(N4CCOCC4)cc23)cc(OC)c1OC | 13.8 | –
34 | COc1cc(C(=O)/C=C/c2cn(S(=O)(=O)c3ccc([N+](=O)[O-])cc3)c3ccc(N4CCOCC4)cc23)cc(OC)c1OC | 15.6 | –
35 | c1cc(C2=NNC(c3c[nH]c4ccc(N5CCOCC5)cc34)C2)ccn1 (centres undefined) | 180 | –
36 | O=C(/C=C/c1cn(S(=O)(=O)c2ccc([N+](=O)[O-])cc2)c2ccc(N3CCOCC3)cc12)c1cncnc1 | 1.59 | IC50 (HCT-116): 1.57 µM; IC50 (SW480): 0.716 µM; IC50 (LoVo): 0.679 µM; IC50 (HT-1080): 0.469 µM
37 | COc1cc(C(=O)/C=C/c2cn(S(=O)(=O)c3ccc(C)cc3)c3ccc(N4CCOCC4)cc23)cc(OC)c1OC | 19.9 | –
38 | COc1ccc(S(=O)(=O)n2cc(/C=C/C(=O)c3ccncc3)c3cc(N4CCOCC4)ccc32)cc1 | 7.58 | –
39 | O=C(/C=C/c1cn(S(=O)(=O)c2ccc([N+](=O)[O-])cc2)c2ccc(N3CCOCC3)cc12)c1nccs1 | 8 | –
40 | N#Cc1ccc(S(=O)(=O)n2cc(/C=C/C(=O)c3ccncc3)c3cc(N4CCOCC4)ccc32)cc1 | 5.48 | –
41 | CC(=O)n1cc(/C=C/C(=O)c2ccncc2)c2cc(N3CCOCC3)ccc21 | 7.77 | –
42 | Cc1ccc(C(=O)/C=C/c2cn(S(=O)(=O)c3ccc([N+](=O)[O-])cc3)c3ccc(N4CCOCC4)cc23)c(C)n1 | 1.07 | IC50 (HCT-116): 1.13 µM; IC50 (SW480): 0.655 µM; IC50 (LoVo): 0.221 µM; IC50 (HT-1080): 0.754 µM
43 | COc1cc(C(=O)/C=C/c2c[nH]c3ccc(N4CCOCC4)cc23)cc(OC)c1OC | 11.2 | –
44 | O=C(/C=C/c1cn(S(=O)(=O)c2ccc([N+](=O)[O-])cc2)c2ccc(N3CCOCC3)cc12)c1ccccc1 | 23.9 | –
45 | O=C(/C=C/c1cn(S(=O)(=O)c2ccccc2)c2ccc(N3CCOCC3)cc12)c1ccncc1 | 7.29 | –
46 | O=C(/C=C/c1cn(S(=O)(=O)c2ccc(I)cc2)c2ccc(N3CCOCC3)cc12)c1ccncc1 | 20.5 | –
47 | COc1ccc2c(c1)c(/C=C/C(=O)c1ccncc1)cn2S(=O)(=O)c1ccc(C)cc1 | 3.81 | –
48 | COc1cc(C(=O)/C=C/c2cn(C)c3ccc(N4CCOCC4)cc23)cc(OC)c1OC | 12.1 | –
49 | O=C(/C=C/c1cn(S(=O)(=O)c2cccs2)c2ccc(N3CCOCC3)cc12)c1ccncc1 | 7.53 | –
50 | COc1ccc(C(=O)/C=C/c2cn(S(=O)(=O)c3ccc([N+](=O)[O-])cc3)c3ccc(N4CCOCC4)cc23)c(OC)n1 | 416 | –
51 | Cc1ccc(S(=O)(=O)n2cc(/C=C/C(=O)c3ccncc3)c3ccccc32)cc1 | 8.49 | –
52 | Cc1[nH]c2ccc(N3CCOCC3)cc2c1/C=C/C(=O)c1cccnc1 | 42.5 | –
53 | O=C(/C=C/c1cn(S(=O)(=O)c2ccc([N+](=O)[O-])cc2)c2ccc(N3CCOCC3)cc12)c1cncc2ccccc12 | 8.7 | –
54 | O=C(/C=C/c1cn(S(=O)(=O)c2ccc([N+](=O)[O-])cc2)c2ccc(N3CCOCC3)cc12)c1ccccn1 | 0.915 | IC50 (HCT-116): 1.04 µM; IC50 (SW480): 1.08 µM; IC50 (LoVo): 0.74 µM; IC50 (HT-1080): 0.793 µM
55 | O=C(/C=C/c1cn(S(=O)(=O)c2ccc([N+](=O)[O-])cc2)c2ccc(N3CCOCC3)cc12)c1cnc2ccccc2c1 | 104 | –
